Data from article PMC2225439, “Amyloid as a Depot for the Formulation of Long-Acting Drugs” (PLoS Biology, 2008).

Columns and labels:
Congo red (CR) binding = type: physicochemical; design: key to Congo Red: b, binding; n, not binding; settings: analogs incubated for 30 d; for Congo Red: 1 mg/ml in 5% D-mannitol, 0.01% sodium azide, room temperature, UV 300–700 nm and by eye, three independent experiments
Description: To confirm amyloid formation by GnRH analogs, CR binding was measured. CR, like Thio T, is a dye routinely used to detect β-sheet–rich assemblies. CR binding can be measured by the “red shift” change of its absorption maximum from 490 to 540 nm, by an increase of the dye's molar absorptivity, and in favorable cases by eye. All three types of measurements were performed with GnRH analogs incubated for 30 d. […] However, five short-acting GnRH analogs, i.e., S3, S4, S6, S10, and S11, bind CR, showing that some short-acting GnRH-analogs are able to form amyloids after prolonged incubation (see also below). In contrast to short-acting analogs, all long-acting analogs bind CR.
(§1) GnRH analogs were dissolved in a glass tube in 1 ml of 5% D-mannitol and 0.01% sodium azide at a concentration of 1 mg/ml. The GnRH analogs were then incubated at room temperature without stirring. The fibril formation was monitored by EM, CR, and time-resolved by Thio T binding studies. Three independent experiments were performed for each sample.
A 5-μl aliquot of peptide sample was mixed with 80 μl of PBS buffer containing 10% ethanol. Then 15 μl of a 100 μM CR solution (filtered through 0.2-μm filter) in PBS containing 10% ethanol was added. After mixing, UV was measured from 300–700 nm. For the measurement of the CR-only spectrum, 15 μl of CR solution with 85 μl of PBS containing 10% ethanol was prepared. As a control, a 5-μl aliquot of GnRH analog mixed with 95 μl of PBS containing 10% ethanol was measured. Three independent experiments were performed for each sample. In addition to the UV measurements, pictures of the cuvette containing the peptide sample and CR were taken to visually show the CR binding to the amyloids.

[1] = Thio T binding (amyloid fibril formation); type: physicochemical; design: key to Thio T Binding: b, binding; n, not binding; settings: 1 mg/ml in 5% D-mannitol, 0.01% sodium azide, room temperature without stirring, monitored daily over 21 d; fluorescence ex 450 nm / em 482 nm; three independent experiments
Description: The kinetics of fibril formation in vitro is generally a slow process over several days or weeks, and can be monitored by the increase of fluorescence intensity of the cross-β-sheet–sensitive dye, Thio T [15]. Thio T fluorescence is thereby insignificant during the initial incubation period of amyloid aggregation due to the nonexistence of Thio T–sensitive β-sheet aggregates. After the initial phase, a time-dependent increase of fluorescence intensity is observed until a maximum intensity is reached, at which time maximal fibril formation has occurred. […] For the Thio T binding studies, all GnRH analogs were incubated at room temperature at a concentration of 1 mg/ml in 5% D-mannitol, conditions identical to the formulation used in the animal experiments. In addition, 0.01% sodium azide was added. The Thio T fluorescence was monitored daily for all analogs over a period of 21 d (Figure 1).
as §1
A 10-μl aliquot of peptide sample was diluted into 500 μl of water with 5% D-mannitol containing 0.01% (w/v) sodium azide. The solution was mixed with 10 μl of 1 mM Thio T prepared in the same solution. Fluorescence was measured immediately after addition of Thio T. The experiment was measured on a spectrofluorimeter (Photon Technology International) with excitation at 450 nm and emission at 482 nm. The fluorescence intensity at 482 nm was plotted against incubation time (day). A rectangular 10-mm quartz microcuvette was used. Three independent experiments were performed for each sample.

[2] = Peptide release from amyloid (dialysis experiment); settings: for KD: dissociation constant of the aggregates = final monomer concentration, 200 μl of 30-d-old analog dialyzed against 4 ml 5% D-mannitol, fluorescence ex 280 nm
Description: Although amyloid fibrils are very stable, they must follow thermodynamic equilibrium conditions between fibril and monomer. […] A total of 200 μl of 30-d-old GnRH analog (in) was dialyzed 4 ml of 5% D-mannitol (out). A 3.5-kDa cutoff, which is twice the size of the peptides studied, was chosen to ensure that the released particles are most likely monomeric. The peptide release and the remaining aggregates were monitored by fluorescence over 35 d at room temperature.
A 200-μl aliquot of aged GnRH in solution conditions given above was transferred into a 0.6-ml Eppendorf tube with a hole in the cap. To study the effect of heparin on peptide release, a mixture of hormone analog and heparin (1:1 v/v) was incubated overnight in parallel with a half-diluted peptide fibril sample in 5% D-mannitol and 0.01% sodium azide. The hole in the cap of the Eppendorf tube was sealed with a 3.5-kDa molecular weight cutoff (MWCO) membrane. Next, the Eppendorf tube was inserted upside down into a 15-ml Falcon tube containing 4 ml of 5% D-mannitol in water and 0.01% sodium azide. Care was taken to make sure that the membrane was exposed to solutions both in and outside and that any bubbles at the membrane interface were removed. The tubes were then incubated at room temperature. To measure the remaining peptide concentration inside the 0.6-ml Eppendorf tube, a 5-μl aliquot was diluted into 500 μl water with 5% D-mannitol, 0.01% sodium azide, and the fluorescence was measured with excitation at 280 nm and emission in the range of 290–500 nm. The excitation slit width was 2 nm, and emission slit width was 11 nm. To determine the peptide concentration outside the membrane in the 15-ml tube, an aliquot of 250 μl of solution was taken from the releasing medium, diluted into 500 μl final volume by 5% D-mannitol, 0.01% sodium azide, and fluorescence was measured. Following spectra recording, the dialysis system was reassembled as described above. […] The normalized intensity maxima from inside and outside the membrane were plotted as a function of time and fit by an exponential function to extract the half-life of the fibrils and the K off, respectively. […] The extracted half-life, t 1/2, is the time taken, during which the fluorescence signal inside the 0.6-ml Eppendorf tube drops by 50%.

[3] = tested on: plasma luteinizing hormone (LH) levels; settings: cited from earlier work; for Action: duration of action class as listed in Table 1, castrated male rat assay, ref Tables S1 and S2
Source text: Table 1 Biochemical and Biophysical Properties of Aggregates By GnRH-Analogs | column: Action || Supplement pbio.0060017.st001.doc, table 1: Table S1: Short acting GnRH analogs with their duration of action | column: Duration of action^b || Supplement pbio.0060017.st002.doc, table 1: Table S2: Long acting GnRH analogs with their duration of action | column: Duration of action^b || (+ 2 further places)

[4] = Electron microscopy of negative-stained samples; type: physicochemical; design: key to EM^8 / EM^30: fib, fibrils; nfib, no fibrils; settings: for EM, formation of amyloid-like fibrils at day 30 (in words): 30 d of incubation; for EM^8: electron microscopy at day 8 of incubation; for EM^8 / EM^30: 1 mg/ml in 5% D-mannitol, room temperature, at least two independent experiments; for EM^30: electron microscopy at day 30 of incubation
Description: To formally determine the formation of amyloid fibrils by GnRH analogs and to characterize other possible assemblies present in the sample, EM was done on all of the GnRH analogs. Since the EM analysis is for a qualitative interpretation only, amyloid fibrils and other small aggregates might be observed under the electron microscope even if only a minority of the sample forms fibrils. Samples were studied after 8 and 30 d of incubation. […] The fibrils show a wide variety of morphologies, comprising helical ultrastructures with varying degrees of lateral association. Furthermore, the fibrils are composed of one or more filaments, resulting in overall diameters ranging from approximately 6 to 12 nm. No oligomers are observed for the long-acting compounds at day 8 or at day 30 (Figures 2 and S2).
as §1
A 5-μl aliquot of peptide sample was diluted into 50 μl of water to a peptide concentration of approximately 50 μM, spotted on a glow-discharged, carbon-coated Formvar grid (Electron Microscopy Sciences), incubated for 5 min, washed with distilled water, and then stained with 1% (w/v) aqueous uranyl formate solution. Uranyl formate solutions were filtered through 0.2-μm sterile syringe filters (Corning) before use. EM analysis was performed using a JEOL JEM-100CXII electron microscope at 80 kV with nominal magnifications between 36,000 and 72,000. Images were recorded digitally by using the SIS Megaview III imaging system. At least two independent experiments were carried out for each sample.

[5] = tested on: mouse embryo fibroblast cells; assay: LDH release assay; type: cell-based; settings: 1 μM Aβ(1–40); triplicate
Source text: Since amyloid fibrils can be toxic to cells and are associated with several neurological diseases, it is a concern whether or not amyloid fibrils of GnRH analogs are able to generate a toxic response as well. To measure the potential toxicity of GnRH analogs, we used the lactate dehydrogenase (LDH) release assay for cell killing. The LDH release assay is a widely used assay to determine the cytotoxicity of chemicals or environmental toxic factors. LDH is a soluble cytosolic enzyme that is released into the culture medium following the loss of membrane integrity. For the LDH assay, we used mouse embryo fibroblast cells and aged peptide samples at 60 μM in 5% D-mannitol.
For the LDH assay, we used mouse embryo fibroblast cells and peptide fibrils at 60 μM final concentration in 5% D-mannitol. For the buffer control, we used 5% D-mannitol in water. We also used 1 μM Aβ(1–40) and a cell lysate to compare our data. The assay was done using a kit (Sigma) as described by the manufacturer. The assays were done in triplicate and the data presented as the standard error of the mean.

[6] = dialysis, 3.5-kDa cutoff, room temperature, 35 d
[7] = half-life of fibrils: time in which fluorescence inside drops by 50%, dialysis of 30-d-old analog, 3.5-kDa MWCO, 5% D-mannitol, room temperature, 35 d, exponential fit, 2 d = intrinsic diffusion of monomer
[8] = 3.5-kDa MWCO, room temperature, 35 d

| Compound | Congo Red (Congo red (CR) binding) | Thio T Binding [1] | time to reach equilibrium of fluorescence inside and outside of the membrane ([2]; dialysis, 3.5-kDa cutoff, room temperature) | t1/2 [2, 7] | EM^8 [4] | EM^30 [4] | KD [2, 8] | K off [2, 6] | t1/2 [2, 6] | duration of action ([3]; ref [29],[30]) | EM, formation of amyloid-like fibrils at day 30 (in words) [4] | Action [3] | toxicity (LDH release) [5] | CR binding (in words) (Congo red (CR) binding) | stability of fibrils from release profile (in words) ([2]; dialysis of 30-d-old samples, 35 d) | Koff ([2]; monomer release from aggregates, dialysis of 30-d-old analog, 3.5-kDa MWCO, 5% D-mannitol, room temperature, 35 d, exponential fit) | EM, formation of amyloid-like fibrils at day 8 (in words) ([4]; 8 d of incubation) |
| --- | --- | --- | --- | --- | --- | --- | --- | --- | --- | --- | --- | --- | --- | --- | --- | --- | --- |
| Ac-Agl(2-Napht)-DCpa-DPal-Ser-Aph(Ac)-DAph(Ac)-Leu-ILys-Pro-DAla-NH2 [L21] | b | b |  | 840 h | fib | fib | 2000 nM |  |  |  |  | intermediate |  |  |  |  |  |
| Ac-DNal-DCpa-DPal-Ser-Aph(Ac)-DAph(Ac)-Leu-Agl(Me,IβAla)-Pro-DAla-NH2 [L22] | b | b |  | 672 h | fib | fib | 7000 nM |  |  |  |  | medium |  |  |  |  |  |
| Aβ(1–40): amyloid peptide Aβ(1–40), used as positive control in the LDH release assay |  |  |  |  |  |  |  |  |  |  |  |  | neither the peptide analog samples nor Aβ(1–40) generated toxicity |  |  |  |  |
| des-Ac-[DAph(CONHOCH3)6]Peg-degarelix [S10] | b | b |  | ≫35 day | fib | fib | 1000 nM | < 2 × 10^−7 S^−1 | over 35 d |  | form amyloid-like fibrils |  |  | bind CR | form very stable amyloids with very little peptide release | ≪2 × 10^−7 s^−1 | form amyloid-like fibrils |

Further lines, with some results ahead:

| Congo Red (Congo red (CR) binding) | Thio T Binding [1] | time to reach equilibrium of fluorescence inside and outside of the membrane ([2]; dialysis, 3.5-kDa cutoff, room temperature) | t1/2 [2, 7] | EM^8 [4] | EM^30 [4] | KD [2, 8] | Compound | K off [2, 6] | t1/2 [2, 6] | duration of action ([3]; ref [29],[30]) | EM, formation of amyloid-like fibrils at day 30 (in words) [4] | Action [3] | toxicity (LDH release) [5] | CR binding (in words) (Congo red (CR) binding) | stability of fibrils from release profile (in words) ([2]; dialysis of 30-d-old samples, 35 d) | Koff ([2]; monomer release from aggregates, dialysis of 30-d-old analog, 3.5-kDa MWCO, 5% D-mannitol, room temperature, 35 d, exponential fit) | EM, formation of amyloid-like fibrils at day 8 (in words) ([4]; 8 d of incubation) |
| --- | --- | --- | --- | --- | --- | --- | --- | --- | --- | --- | --- | --- | --- | --- | --- | --- | --- |
| n | n | ≤ 3 days | 48 h | nfib | nfib |  | CC(C)C[C@H](NC(=O)CNC(=O)[C@H](Cc1ccc(O)cc1)NC(=O)[C@H](CO)NC(=O)[C@H](Cc1c[nH]c2ccccc12)NC(=O)[C@H](Cc1c[nH]cn1)NC(=O)[C@@H]1CCC(=O)N1)C(=O)N[C@@H](CCCNC(=N)N)C(=O)N1CCC[C@H]1C(=O)NCC(N)=O [S12, reference compound] | approximately 4 × 10^−6 S^−1 | approximately 2 d | a few hours | do not form any detectable amyloid-like fibrils |  |  |  |  |  |  |
| n | n |  | 48 h | nfib | nfib |  | Ac-Agl(Me,2-Napht)-DCpa-DPal-Ser-Aph(Ac)-DAph(Ac)-Leu-ILys-Pro-DAla-NH2 [S8] |  |  |  | do not form any detectable amyloid-like fibrils | very short |  |  |  |  |  |
| n | n |  | 48 h | nfib | nfib |  | Ac-DNal-DCpa-DPal-Ser-D,LAgl(Me,acetylamino)benzoyl-DAph(Ac)-Leu-ILys-Pro-DAla-NH2 [S9] |  |  |  | do not form any detectable amyloid-like fibrils | very short |  |  |  |  |  |
